Our source for the IC50 values is patent US8871767B2, “2-arylimidazo[1,2-B]pyridazine, 2-phenylimidazo[1,2-A]pyridine, and 2-phenylimidazo[1,2-A]pyrazine derivatives” (Hengrui (USA) Ltd., priority 2010, dated 2014).

SMILES strings stand for the structures. Where only a bound is given, the exact number is not on record here.

The IC50 is the midpoint of a concentration-inhibition curve.

The test deals with Hedgehog pathway activation (GLi-luciferase reporter) in Shh Light II reporter cells. The test is described as follows: Hedgehog pathway activation on Shh Light II reporter cells measured by luciferase activity. The test is classed as cell-based. The settings on record: Mus musculus, Shh Light II, hShh activation, read-out: Shh (IC50, inhibition of Hedgehog pathway activation). How it is done:
Hedgehog conditioned media was obtained by transfecting 293H cells with the full length gene encoding human Sonic Hedgehog (hShh) inserted into the pCMV6 expression vector, which contains a neomycin selectable marker and expresses the protein of interest with a C-terminal FLAG affinity tag. After selection in G418 containing media, conditioned media from Hedgehog expressing clones were tested for the ability to activate the hedgehog-responsive GLi-luciferase reporter in the Shh Light II cell line obtained by license from John Hopkins University (Taipale J, et al. Effects of oncogenic mutations in Smoothened and Patched can be reversed by cyclopamine. Nature 406: 1005-1009, 2000).
A test compound library was screened against hShh and 500 nM SAG (a direct agonist of the Smoothened receptor) activated 10T1/2/Smo#3 cells and Shh Light II reporter cells for the ability to block Hedgehog pathway activation. Concurrently, cell viability was measured by utilizing Celltiter-Blue® (Promega, Madison Wis.) viability assay. Active compounds were defined as those that inhibited Hedgehog signaling by greater than 50% with no concurrent loss in cell viability.
Their inhibitory activity against Hedgehog pathway activation on 10T1/2/Smo#3 cells as measured by ALP activity and Shh Light II reporter cells as measured by luciferase activity is shown in Table 1 below. In Table 1, +++ stands for an IC50 value that is less than 0.3 μM, ++ between 0.3 and 3 μM, + between 3 and 30 μM.
Additional data for compounds of the invention is shown below in Table 2. Their inhibitory activities against Hedgehog pathway activation are shown as IC50 values in μM on 10T1/2/Smo#3 cells as measured by ALP activity, or on Shh Light II reporter cells as measured by luciferase activity (hShh activation).
As to `Cc1ccc(-c2cn3nc(-c4cccnc4C(F)(F)F)ccc3n2)cc1C(=O)O` [Example 481, 2-methyl-5-(6-(2-(trifluoromethyl)pyridin-3-yl)imidazo[1,2-b]pyridazin-2-yl)benzoic acid], the IC50 is > 10 µM.

For the compound `CC(C)(C)C(=O)Nc1cc(-c2cn3nc(-c4cccc(S(C)(=O)=O)c4)ccc3n2)ccc1C(F)(F)F` [Example 325, N-(5-(6-(3-(methylsulfonyl)phenyl)imidazo[1,2-b]pyridazin-2-yl)-2-(trifluoromethyl)phenyl)pivalamide], the IC50 was 0.74 µM.

Regarding `Cc1ccc(-c2cn3nc(-c4cncc(F)c4)ccc3n2)cc1NC(=O)C(C)(C)C` [Example 407, N-(5-(6-(5-fluoropyridin-3-yl)imidazo[1,2-b]pyridazin-2-yl)-2-methylphenyl)pivalamide], the IC50 was determined as 0.353 µM.

As for `Cc1ccc(C2CN3N=C(c4cccnc4C(F)(F)F)C=CC3=N2)cc1NC(=O)C(C)(C)CN` (centres unmarked) [compound 622, 3-amino-2,2-dimethyl-N-(2-methyl-5-(6-(2-(trifluoromethyl)pyridin-3-yl)-2,3-dihydroimidazo[1,2-b]pyridazin-2-yl)phenyl)propanamide], the IC50 was found to be 0.534 µM.

Regarding `CC1CNCCN1c1ccc2nc(-c3ccc(C(F)(F)F)c(NC(=O)C(C)(C)C)c3)cn2n1` (centres unmarked) [Example 329, N-(5-(6-(2-methylpiperazin-1-yl)imidazo[1,2-b]pyridazin-2-yl)-2-(trifluoromethyl)phenyl)pivalamide], the IC50 was 2.02 µM.

Regarding `Cc1ccc(-c2cn3nc(-c4cccc(CO)n4)ccc3n2)cc1NC(=O)C(C)(C)C` [Example 460, N-(5-(6-(6-(hydroxymethyl)pyridin-2-yl)imidazo[1,2-b]pyridazin-2-yl)-2-methylphenyl)pivalamide], the IC50 came to 1.12 µM.

As for `Cc1ccc(F)c(-c2ccc3nc(-c4ccc(C(F)(F)F)c(NC(=O)C(C)(C)C)c4)cn3n2)c1` [Example 226, N-(5-(6-(2-fluoro-5-methylphenyl)imidazo[1,2-b]pyridazin-2-yl)-2-(trifluoromethyl)phenyl)pivalamide], the IC50 turned out to be 1.48 µM.

`Cc1ccc(-c2cn3nc(-c4cccc(F)c4Cl)ccc3n2)cc1NC(=O)C(C)(C)C` [compound 619]: the IC50 worked out at 0.035 µM.

Turning to `CC(=O)c1cccc(-c2ccc3nc(-c4ccc(C)c(NC(=O)C(C)(C)C)c4)cn3n2)c1` [compound 527], the IC50 came out at 1.05 µM.

As for `Cc1ccc(-c2cn3nc(-c4ccc(O)nc4)ccc3n2)cc1NC(=O)C(C)(C)C` [Example 404, N-(5-(6-(6-hydroxypyridin-3-yl)imidazo[1,2-b]pyridazin-2-yl)-2-methylphenyl)pivalamide], the IC50 is 0.873 µM.

Consider `Cc1ccc(-c2cn3nc(-c4ccc(O)cc4F)ccc3n2)cc1NC(=O)C(C)(C)C` [compound 547], for which the IC50 came to 0.793 µM.

As for `Cc1ccc(-c2cn3nc(-c4cccnc4C#N)ccc3n2)cc1NC(=O)C(C)(C)C` [compound 581, N-(5-(6-(2-cyanopyridin-3-yl)imidazo[1,2-b]pyridazin-2-yl)-2-methylphenyl)pivalamide], the IC50 turned out to be 0.082 µM.

Take `Cc1ccc(-c2cn3nc(-c4ccc(C(N)=NO)cc4)ccc3n2)cc1NC(=O)C(C)(C)C` [compound 546]: the IC50 was 1.13 µM.

In the case of `CCOC(=O)CCCCCNC1CCN(c2ccc3nc(-c4ccc(C)c(NC(=O)C(C)(C)C)c4)cn3n2)C1` (centres unmarked) [Example 414, ethyl 6-(1-(2-(4-methyl-3-pivalamidophenyl)imidazo[1,2-b]pyridazin-6-yl)pyrrolidin-3-ylamino)hexanoate], the IC50 worked out at 0.947 µM.

Regarding `Cc1ccc(-c2cn3nc(-c4ccc(NC(=O)CCCCCCC(=O)NO)cc4C(F)(F)F)ccc3n2)cc1NC(=O)C(C)(C)C` [compound 530], the IC50 was 6.68 µM.

Regarding `Cc1ccc(-c2cn3nc(NC(=O)c4cc(Cl)ccn4)ccc3n2)cc1NC(=O)C(C)(C)C` [compound 613], the IC50 worked out at 0.283 µM.

Take `Cc1ccc(-c2cn3nc(-c4ccc(C(N)=O)cn4)ccc3n2)cc1NC(=O)C(C)(C)C` [compound 538, 6-(2-(4-methyl-3-pivalamidophenyl)imidazo[1,2-b]pyridazin-6-yl)nicotinamide]: the IC50 is 0.43 µM.

As to `Cc1ccc(-c2cn3nc(-c4ccc(N)nc4)ccc3n2)cc1NC(=O)C(C)(C)C` [Example 402, N-(5-(6-(6-aminopyridin-3-yl)imidazo[1,2-b]pyridazin-2-yl)-2-methylphenyl)pivalamide], the IC50 turned out to be 1.56 µM.

Turning to `CC(C)(C)C(=O)Nc1cc(-c2cn3nc(-c4cccs4)ccc3n2)ccc1C(F)(F)F` [Example 230, N-(5-(6-(thiophen-2-yl)imidazo[1,2-b]pyridazin-2-yl)-2-(trifluoromethyl)phenyl)pivalamide], the IC50 turned out to be 1.55 µM.

Take `Cc1ccc(-c2cn3nc(Cl)ccc3n2)cc1NC(=O)c1cccc(C=CC(=O)NO)c1` [compound 615]: the half-inhibitory concentration (IC50) was 2.23 µM.

With `CC(C)(C)C(=O)Nc1cc(-c2cn3nc(-c4cncc(N)c4)ccc3n2)ccc1C(F)(F)F` [Example 343, N-(5-(6-(5-aminopyridin-3-yl)imidazo[1,2-b]pyridazin-2-yl)-2-(trifluoromethyl)phenyl)pivalamide], the IC50 was 0.34 µM.

In the case of `CC(C)(C)OC(=O)NC1CCN(c2ccc3nc(-c4ccc(C(F)(F)F)c(NC(=O)C(C)(C)C)c4)cn3n2)CC1` [Example 331, tert-butyl 1-(2-(3-pivalamido-4-(trifluoromethyl)phenyl)imidazo[1,2-b]pyridazin-6-yl)piperidin-4-ylcarbamate], the IC50 worked out at 0.478 µM.

Take `COc1ccc2nc(-c3ccc(C)c(NC(=O)c4ccc(S(C)(=O)=O)cc4Cl)c3)cn2n1` [Example 95, 2-chloro-N-(5-(6-methoxyimidazo[1,2-b]pyridazin-2-yl)-2-methylphenyl)-4-(methylsulfonyl)benzamide]: the IC50 was 7.86 µM.

Regarding `COC(=O)c1csc(-c2ccc3nc(-c4ccc(C)c(NC(=O)C(C)(C)C)c4)cn3n2)n1` [Example 446, methyl 2-(2-(4-methyl-3-pivalamidophenyl)imidazo[1,2-b]pyridazin-6-yl)thiazole-4-carboxylate], the IC50 is 1.38 µM.

Consider `COC(=O)CN(C(=O)C(C)(C)C)c1cc(-c2cn3nc(-c4cccnc4C(F)(F)F)ccc3n2)ccc1C` [compound 515, methyl 2-(N-(2-methyl-5-(6-(2-(trifluoromethyl)pyridin-3-yl)imidazo[1,2-b]pyridazin-2-yl)phenyl)pivalamido)acetate], for which the IC50 was 0.911 µM.

Regarding `Cc1ccc(-c2cn3nc(-c4cccnc4C(F)(F)F)ccc3n2)cc1NC(=O)C(C)(C)C#N` [compound 621, 2-cyano-2-methyl-N-(2-methyl-5-(6-(2-(trifluoromethyl)pyridin-3-yl)imidazo[1,2-b]pyridazin-2-yl)phenyl)propanamide], the IC50 is 0.053 µM.

Consider `COC(=O)CCCCCCC(=O)Nc1cc(-c2cn3nc(-c4cccnc4C(F)(F)F)ccc3n2)ccc1C` [Example 420, methyl 8-(2-methyl-5-(6-(2-(trifluoromethyl)pyridin-3-yl)imidazo[1,2-b]pyridazin-2-yl)phenylamino)-8-oxooctanoate], for which the half-inhibitory concentration (IC50) was 1.37 µM.

Take `Cc1ccc(-c2cn3nc(-c4cccnc4C(F)(F)F)ccc3n2)cc1NS(=O)(=O)c1cccc(C=CC(=O)Nc2ccccc2N)c1` [compound 624, N-(2-aminophenyl)-3-(3-(N-(2-methyl-5-(6-(2-(trifluoromethyl)pyridin-3-yl)imidazo[1,2-b]pyridazin-2-yl)phenyl)sulfamoyl)phenyl)acrylamide]: the IC50 was 0.824 µM.

With `COc1ccc2nc(-c3ccc(C)c(NS(=O)(=O)c4cccc(C=CC(=O)NO)c4)c3)cn2n1` [compound 618], the IC50 was determined as 9.09 µM.

`Cc1ccc(-c2cn3nc(C4=CCCC4)ccc3n2)cc1NC(=O)C(C)(C)C` [Example 442, N-(5-(6-cyclopentenylimidazo[1,2-b]pyridazin-2-yl)-2-methylphenyl)pivalamide]: the IC50 was found to be 1.06 µM.

On to `CC(=O)Nc1ccc(-c2ccc3nc(-c4ccc(C)c(NC(=O)C(C)(C)C)c4)cn3n2)c(C)n1` [compound 504, N-(5-(6-(6-acetamido-2-methylpyridin-3-yl)imidazo[1,2-b]pyridazin-2-yl)-2-methylphenyl)pivalamide], for which the IC50 is 0.36 µM.

Regarding `Cc1ccc(-c2cn3nc(-c4ccc(C(=O)N(C)C)cc4)ccc3n2)cc1NC(=O)C(C)(C)C` [compound 524], the IC50 was determined as 0.479 µM.

On to `Cc1ccc(-c2cn3nc(-c4cccnc4C(F)(F)F)ccc3n2)cc1N(C)C(=O)C(C)(C)C` [compound 514, N-methyl-N-(2-methyl-5-(6-(2-(trifluoromethyl)pyridin-3-yl)imidazo[1,2-b]pyridazin-2-yl)phenyl)pivalamide], for which the IC50 turned out to be 0.392 µM.

Turning to `Cc1ccc(-c2cn3nc(-c4cc(CO)ccc4F)ccc3n2)cc1NC(=O)C(C)(C)C` [Example 275, N-(5-(6-(2-fluoro-5-(hydroxymethyl)phenyl)imidazo[1,2-b]pyridazin-2-yl)-2-methylphenyl)pivalamide], the 50% inhibitory concentration (IC50) stood at 1.8 µM.

On to `Cc1ccc(-c2cn3nc(-c4ccc(NC(=O)CCCCCCC(=O)NO)cc4)ccc3n2)cc1NC(=O)C(C)(C)C` [compound 563], for which the half-inhibitory concentration (IC50) was found to be 0.622 µM.
